Target: thymidine phosphorylase (Escherichia coli, UniProt P07650)
Format: biochemical
Conditions: thymidine phosphorylase inhibition versus standard drug (7-deazaxanthine)

thymidine phosphorylase, sequence (P07650 whole entry): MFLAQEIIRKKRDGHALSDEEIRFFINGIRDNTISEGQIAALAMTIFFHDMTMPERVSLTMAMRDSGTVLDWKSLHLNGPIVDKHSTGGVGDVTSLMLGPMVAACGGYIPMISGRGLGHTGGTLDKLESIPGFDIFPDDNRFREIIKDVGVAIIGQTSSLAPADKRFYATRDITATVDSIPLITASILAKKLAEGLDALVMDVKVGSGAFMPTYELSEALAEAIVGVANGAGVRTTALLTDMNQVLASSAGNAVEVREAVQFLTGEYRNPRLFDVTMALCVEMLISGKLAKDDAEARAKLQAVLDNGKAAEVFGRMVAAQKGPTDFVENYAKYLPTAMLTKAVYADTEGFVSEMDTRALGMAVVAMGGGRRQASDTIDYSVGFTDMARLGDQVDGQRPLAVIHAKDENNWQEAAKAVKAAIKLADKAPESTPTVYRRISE

| SMILES | potency compared with standard drug |
| --- | --- |
| Cc1ccc(-c2ccc(/C=N/c3nnc(-c4cccc(-c5nnc(/N=C/c6ccc(-c7ccc(C)cc7)cc6)s5)n4)s3)cc2)cc1 [4n, (1E,1'E)-N,N'-(pyridine-2,6-diylbis(1,3,4-thiadiazole-5,2-diyl))bis(1-(4'-methyl-[1,1'-biphenyl]-4-yl)methanimine)] | less potent than the standard drug |
| C(=N\c1nnc(-c2cccc(-c3nnc(/N=C/c4ccc(-c5ccccc5)cc4)s3)n2)s1)/c1ccc(-c2ccccc2)cc1 [4e, (1E,1'E)-N,N'-(pyridine-2,6-diylbis(1,3,4-thiadiazole-5,2-diyl))bis(1-([1,1'-biphenyl]-4-yl)methanimine)] | less potent than the standard drug |
| CN(C)c1ccc(/C=N/c2nnc(-c3cccc(-c4nnc(/N=C/c5ccc(N(C)C)cc5)s4)n3)s2)cc1 [4i, 4,4'-((1E,1'E)-((pyridine-2,6-diylbis(1,3,4-thiadiazole-5,2-diyl))bis(azanylylidene))bis(methanylylidene))bis(N,N-dimethylaniline)] | less potent than the standard drug |
